Measured values from patent publication US20190364899A1, “MICROBIOCIDAL OXADIAZOLE DERIVATIVES” (SYNGENTA PARTICIPATIONS AG, priority 2015, published 2019).

Assays:
[1] = tested on: Puccinia recondita f, Sp. Tritici; experiment: Fungicidal activity against Puccinia recondita f. sp. tritici / wheat / leaf disc preventative (brown rust); assay type: in vivo; conditions: foliar, 200 ppm in the applied formulation, wheat leaf segments cv. Kanzler, inoculated 1 day after application, compared to untreated, read-out: disease control
Method: (§1) General examples of leaf disk tests in well plates: Leaf disks or leaf segments of various plant species are cut from plants grown in a greenhouse. The cut leaf disks or segments are placed in multiwell plates (24-well format) onto water agar. The leaf disks are sprayed with a test solution before (preventative) or after (curative) inoculation. Compounds to be tested are prepared as DMSO solutions (max. 10 mg/ml) which are diluted to the appropriate concentration with 0.025% Tween20 just before spraying. The inoculated leaf disks or segments are incubated under defined conditions (temperature, relative humidity, light, etc.) according to the respective test system. A single evaluation of disease level is carried out 3 to 14 days after inoculation, depending on the pathosystem. Percent disease control relative to the untreated check leaf disks or segments is then calculated. General examples of liquid culture tests in well plates: Mycelia fragments or conidia suspensions of a fungus prepared either freshly from liquid cultures of the fungus or from cryogenic storage, are directly mixed into nutrient broth. DMSO solutions of the test compound (max. 10 mg/ml) are diluted with 0.025% Tween20 by a factor of 50 and 10 μl of this solution is pipetted into a microtiter plate (96-well format). The nutrient broth containing the fungal spores/mycelia fragments is then added to give an end concentration of the tested compound. The test plates are incubated in the dark at 24° C. and 96% relative humidity. The inhibition of fungal growth is determined photometrically after 2 to 7 days, depending on the pathosystem, and percent antifungal activity relative to the untreated check is calculated.
Example 1: Fungicidal Activity Against Puccinia recondita f, Sp. Tritici/Wheat/Leaf Disc Preventative (Brown Rust)
Wheat leaf segments cv. Kanzler were placed on agar in multiwell plates (24-well format) and sprayed with the formulated test compound diluted in water. The leaf disks were inoculated with a spore suspension of the fungus 1 day after application. The inoculated leaf segments were incubated at 19° C. and 75% relative humidity (rh) under a light regime of 12 hours light/12 hours darkness in a climate cabinet and the activity of a compound was assessed as percent disease control compared to untreated when an appropriate level of disease damage appears in untreated check leaf segments (7 to 9 days after application).
(§2) The following compounds at 200 ppm in the applied formulation give at least 80% disease control in this test when compared to untreated control leaf disks under the same conditions, which show extensive disease development.

[2] = tested on: Puccinia Recondite f. Sp. Tritici; experiment: Fungicidal activity against Puccinia recondita f. sp. tritici / wheat / leaf disc curative (brown rust); assay type: in vivo; conditions: foliar, 24 h, 200 ppm in the applied formulation, wheat leaf segments cv. Kanzler, applied 1 day after inoculation, compared to untreated, read-out: disease control
Method: as §1
Example 2: Fungicidal Activity Against Puccinia Recondite f. Sp. Tritici Wheat/Leaf Disc Curative (Brown Rust)
Wheat leaf segments cv. Kanzler are placed on agar in multiwell plates (24-well format). The leaf segments are then inoculated with a spore suspension of the fungus. Plates were stored in darkness at 19° C. and 75% relative humidity. The formulated test compound diluted in water was applied 1 day after inoculation. The leaf segments were incubated at 19° C. and 75% relative humidity under a light regime of 12 hours light/12 hours darkness in a climate cabinet and the activity of a compound was assessed as percent disease control compared to untreated when an appropriate level of disease damage appears in untreated check leaf segments (6 to 8 days after application).
as §2

Phakopsora pachyrhizi = experiment: Fungicidal activity against Phakopsora pachyrhizi / soybean / leaf disc preventative (Asian soybean rust); assay type: in vivo; conditions: foliar, 200 ppm in the applied formulation, soybean leaf disks, inoculated one day after application, compared to untreated, read-out: disease control
Method: as §1
Example 3: Fungicidal Activity Against Phakopsora pachyrhizi/Soybean/Leaf Disc Preventative (Asian Soybean Rust)
Soybean leaf disks are placed on water agar in multiwell plates (24-well format) and sprayed with the formulated test compound diluted in water. One day after application leaf discs are inoculated by spraying a spore suspension on the lower leaf surface. After an incubation period in a climate cabinet of 24-36 hours in darkness at 20° C. and 75% rh leaf disc are kept at 20° C. with 12 h light/day and 75% rh. The activity of a compound is assessed as percent disease control compared to untreated when an appropriate level of disease damage appears in untreated check leaf disks (12 to 14 days after application).
as §2

[3] = tested on: Glomerella Lagenarium (Colletotrichum Lagenarium); experiment: Fungicidal activity against Glomerella lagenarium (Colletotrichum lagenarium) liquid culture / cucumber / preventative (anthracnose); assay type: cell-based; conditions: Colletotrichum orbiculare; 20 ppm in the applied formulation; liquid culture in PDB, growth inhibition measured photometrically 3 to 4 days after application; compared to untreated; read-out: disease control
Method: as §1
Example 4: Fungicidal Activity Against Glomerella Lagenarium (Colletotrichum Lagenarium) Liquid Culture/Cucumber/Preventative (Anthracnose)
Conidia of the fungus from cryogenic storage are directly mixed into nutrient broth (PDB—potato dextrose broth). After placing a (DMSO) solution of test compound into a microtiter plate (96-well format), the nutrient broth containing the fungal spores is added. The test plates are incubated at 24° C. and the inhibition of growth is measured photometrically 3 to 4 days after application.
The following compounds at 20 ppm in the applied formulation give at least 80% disease control in this test when compared to untreated control under the same conditions, which show extensive disease development.

O=C(NCc1ccc(-c2noc(C(F)(F)F)n2)cc1)N1CCOCC1 [Compound 3.2, N-[[4-[5-(trifluoromethyl)-1,2,4-oxadiazol-3-yl]phenyl]methyl] morpholine-4-carboxamide]
pest or weed control at 200 ppm [1]: ≥ 80% | pest or weed control at 200 ppm [2]: ≥ 80% | pest or weed control at 200 ppm (Phakopsora pachyrhizi): ≥ 80% | inhibition of growth at 20 ppm [3]: ≥ 80% | melting point: 112 to 115 °C
